# In patent publication US20250236629A1, “MEDIUM- OR MACRO-CYCLIC BENZYL-SUBSTITUTED HETEROCYCLE DERIVATIVES AND RELATED USES” (CENTESSA PHARMACEUTICALS (UK) LIMITED, priority 2022, published 2025):
# Target: T1, human orexin type 2 receptor (hOX2R) (Homo sapiens, UniProt O43614)
# T1 construct: the Orexin receptor cDNA was inserted into pcDNA3.1(+) plasmid vector; expressed in transfected cells
# T1 sequence (O43614 1-444): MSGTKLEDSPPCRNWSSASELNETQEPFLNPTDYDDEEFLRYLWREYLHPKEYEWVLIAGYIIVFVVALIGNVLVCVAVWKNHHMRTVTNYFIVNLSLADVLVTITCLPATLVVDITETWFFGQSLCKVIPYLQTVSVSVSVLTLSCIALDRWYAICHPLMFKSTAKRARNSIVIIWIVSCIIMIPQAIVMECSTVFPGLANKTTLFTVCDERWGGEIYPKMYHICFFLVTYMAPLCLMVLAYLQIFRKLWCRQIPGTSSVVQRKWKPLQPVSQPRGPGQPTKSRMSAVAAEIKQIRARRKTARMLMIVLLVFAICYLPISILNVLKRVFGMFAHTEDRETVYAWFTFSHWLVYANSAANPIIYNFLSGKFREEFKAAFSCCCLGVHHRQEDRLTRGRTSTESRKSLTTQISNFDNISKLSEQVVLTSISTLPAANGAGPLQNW
# Assay: Orexin type 2 receptor agonist activity, intracellular Ca2+ (FLIPR TETRA) in CHO cells
# Format: cell-based
# Settings: CHO cells expressing hOX2R; Ca2+ fluorescence area; 100% = 10 nM human orexin A; read-out: hOx2 pEC50 (converted)
# Description: Stable cell line generation. Obtainment of cells stably expressing either human orexin type 2 or human orexin type 1 receptor: to obtain a stable cell line the Orexin receptor cDNA was inserted into pcDNA3.1(+) plasmid vector and clones identified by G418 drug resistance selection. […] A single clone for OX2R—CHO and OX1R—CHO were grown in bulk and frozen to generate a cell bank for routine screening.
# Measurement of orexin type 2 receptor agonist activity. Chinese hamster ovary (CHO) cells expressing human orexin type 2 receptor (hOX2R) or human orexin type 1 receptor (hOX1R) were seeded in each well of 384 well black clear bottom plates (BD Flacon) at 10,000 cells per well and cultured for 24 hr in an Ham's F12 (Gibco) medium containing 10% fetal calf serum (Sigma Aldrich) under the conditions of 37° C., 5% CO2. After removal of the medium, 50 μl of assay buffer 1 (0.1% bovine serum albumin (Sigma Aldrich), 20 mM HEPES (Molecular Dimensions), […] probenecid (Sigma Aldrich), 1× Calcium 5 dye (Molecular Devices) in Hank's balanced salt solution (Invitrogen)) was added, and the cells were incubated for 60 min under the conditions of 37° C., 5% CO2. A test compound was dissolved in dimethyl sulfoxide (Sigma Aldrich) to 10 mM, and then diluted with assay buffer 2 (20 mM HEPES, Hank's balanced salt solution, 0.1% bovine serum albumin). For the reaction, a test compound solution (10 μl) was added using Fluorescent Imaging Plate Reader TETRA (FLIPR TETRA: manufactured by Molecular Devices), a fluorescence value (excitation wavelength 488 nm, measurement wavelength 570 nm) of each well was measured every one second for 2 min, and the agonist activity was determined using the area of the fluorescence value as an indicator of intracellular Ca^2+ concentration. The agonist activity of the test compound was calculated assuming that the fluorescence value of the well added with only the dilution buffer was 0% and the fluorescence value of the well added with 10 nM human orexin A (Tocris) buffer was 100%.
# Values of hOx2 pEC50 in Table B are presented in ranges, in which 6.0≤“+”<7.0, 7.0≤“++”<8.0, 8.0≤“+++”<9.0, and 9.0≤“++++”<10.4.
row,Compound,EC50 [nM]
1,"C[C@H]1CN2C(=O)N(C)CCOc3ccccc3-c3cccc(c3F)C[C@H]2[C@H]1NS(=O)(=O)CF [Example 2, 1-fluoro-N-((4^2S,4^3S,4^4S)-2^2-fluoro-4^4,6-dimethyl-5-oxo-9-oxa-6-aza-4(2,1)-pyrrolidina-1(1,2),2(1,3)-dibenzenacyclononaphane-4^3-yl)methanesulfonamide]",10 to 100
2,"CC(C)S(=O)(=O)N[C@H]1CCCN2C(=O)CCOc3ccccc3-c3cccc(c3F)C[C@@H]12 [Example 3, N-((4^2S,4^3S)-22-fluoro-5-oxo-8-oxa-4(2,1)-piperidina-1(1,2),2(1,3)-dibenzenacyclooctaphane-4^3-yl)propane-2-sulfonamide]",0.0398 to 1
3,"CN1CCOc2ccccc2-c2cccc(c2F)C[C@H]2[C@@H](NS(=O)(=O)C(F)F)C3(CC3)CN2C1=O [Example 4, 1,1-difluoro-N-((2′S,3′S)-2′-fluoro-6′-methyl-5′-oxospiro[cyclopropane-1,4′-9-oxa-6-aza-4(2,1)-pyrrolidina-1(1,2),2(1,3)-dibenzenacyclononaphan]-3′-yl)methanesulfonamide]",1 to 10
4,"CN1CCOc2c(F)cccc2-c2cccc(c2)C[C@H]2[C@@H](NS(=O)(=O)CF)C(F)(F)CN2C1=O [Example 7, 1-fluoro-N-((4^2S,4^3R)-1^3,4^4,4^4-trifluoro-6-methyl-5-oxo-9-oxa-6-aza-4(2,1)-pyrrolidina-1(1,2),2(1,3)-dibenzenacyclononaphane-4^3-yl)methanesulfonamide]",1 to 10
5,"CN1CCOc2c(F)cccc2-c2cccc(c2F)C[C@H]2[C@@H](NS(=O)(=O)CF)C3(CC3)CN2C1=O [Example 8, N-((2′S,3′S)-2′,3′-difluoro-6′-methyl-5′-oxospiro[cyclopropane-1,4′-9-oxa-6-aza-4(2,1)-pyrrolidina-1(1,2),2(1,3)-dibenzenacyclononaphan]-3′-yl)-1-fluoromethanesulfonamide]",0.0398 to 1
6,"CCS(=O)(=O)N[C@@H]1[C@@H]2Cc3cccc(c3F)-c3cccc(F)c3OCCN(C)C(=O)N2CC12CC2 [Example 9, N-((2′S,3′S)-2′,3′-difluoro-6′-methyl-5′-oxospiro[cyclopropane-1,4′-9-oxa-6-aza-4(2,1)-pyrrolidina-1(1,2),2(1,3)-dibenzenacyclononaphan]-3′-yl)ethanesulfonamide]",1 to 10
7,"CCN1CCOc2ccccc2-c2cccc(c2)C[C@H]2[C@@H](NS(=O)(=O)C(F)F)C3(CC3)CN2C1=O [Example 10, N-((2′S,3′S)-6′-ethyl-5′-oxospiro[cyclopropane-1,4′-9-oxa-6-aza-4(2,1)-pyrrolidina-1(1,2),2(1,3)-dibenzenacyclononaphan]-3′-yl)-1,1-difluoromethanesulfonamide]",1 to 10
8,"O=C1CCOc2c(F)cc(F)cc2-c2cccc(c2)C[C@H]2[C@@H](NS(=O)(=O)CF)CCCN12 [Example 13, N-((4^2S,4^3S)-1^3,1^5-difluoro-5-oxo-8-oxa-4(2,1)-piperidina-1(1,2),2(1,3)-dibenzenacyclooctaphane-4^3-yl)-1-fluoromethanesulfonamide]",1 to 10
9,"O=C1CCOc2c(F)cc(F)cc2-c2cccc(c2)C[C@H]2[C@@H](NS(=O)(=O)C(F)F)CCCN12 [Example 14, N-((4^2S,4^3S)-1^3,1^5-difluoro-5-oxo-8-oxa-4(2,1)-piperidina-1(1,2),2(1,3)-dibenzenacyclooctaphane-4^3-yl)-1,1-difluoromethanesulfonamide]",1 to 10
10,"CCS(=O)(=O)N[C@H]1[C@@H](F)CN2C(=O)N(C)CCOc3ccccc3-c3cccc(c3)C[C@@H]12 [Example 15, N-((4^2S,4^3R,4^4S)-4^4-fluoro-6-methyl-5-oxo-9-oxa-6-aza-4(2,1)-pyrrolidina-1(1,2),2(1,3)-dibenzenacyclononaphane-4^3-yl)ethanesulfonamide]",1 to 10
11,"O=C1N(CC(F)F)CCOc2c(F)cccc2-c2cccc(c2)C[C@H]2[C@@H](NS(=O)(=O)CF)C3(CC3)CN12 [Example 22, N-((2′S,3′S)-6′-(2,2-difluoro-ethyl)-3′-fluoro-5′-oxospiro[cyclopropane-1,4′-9-oxa-6-aza-4(2,1)-pyrrolidina-1(1,2),2(1,3)-dibenzenacyclononaphan]-3′-yl)-1-fluoromethanesulfonamide]",1 to 10
12,"CCS(=O)(=O)N[C@@H]1[C@@H]2Cc3cccc(c3)-c3ccccc3OCCN(C)C(=O)N2CC1(F)F [Example 23, N-((4^2S,4^3R)-4^4,4^4-difluoro-6-methyl-5-oxo-9-oxa-6-aza-4(2,1)-pyrrolidina-1(1,2),2(1,3)-dibenzenacyclononaphane-4^3-yl)ethanesulfonamide]",1 to 10
13,"O=C1CCOc2c(F)cccc2-c2cccc(c2)C[C@H]2[C@@H](NS(=O)(=O)C(F)F)CCCN12 [Example 24, 1,1-difluoro-N-((4^2S,4^3S)-1^3-fluoro-5-oxo-8-oxa-4(2,1)-piperidina-1(1,2),2(1,3)-dibenzenacyclooctaphane-4^3-yl)methanesulfonamide]",1 to 10

# Next, values leading:
row,EC50 [nM],Compound
1,10 to 100,"CN1CCOc2c(F)cccc2-c2cccc(c2)C[C@H]2[C@@H](NS(=O)(=O)C(F)F)C(F)(F)CN2C1=O [Example 1, 1,1-difluoro-N-((4^2S,4^3R)-1^3,4^4,4^4-trifluoro-6-methyl-5-oxo-9-oxa-6-aza-4(2,1)-pyrrolidina-1(1,2),2(1,3)-dibenzenacyclononaphane-4^3-yl)methanesulfonamide]"
2,10 to 100,"CN1CCOc2c(F)cc(F)cc2-c2cccc(c2F)C[C@H]2[C@@H](NS(=O)(=O)C(F)F)[C@@H](F)CN2C1=O [Example 11, 1,1-difluoro-N-((4^2S,4^3R,4^4S)-1^3,1^5,2^2,4^4-tetrafluoro-6-methyl-5-oxo-9-oxa-6-aza-4(2,1)-pyrrolidina-1(1,2),2(1,3)-dibenzenacyclononaphane-4^3-yl)methanesulfonamide]"
3,1 to 10,"CN1CCOc2c(F)cccc2-c2cccc(c2F)C[C@H]2[C@@H](NS(=O)(=O)CF)[C@@H](F)CN2C1=O [Example 12, 1-fluoro-N-((4^2S,4^3R,4^4S)-1^3,2^2,4^4-trifluoro-6-methyl-5-oxo-9-oxa-6-aza-4(2,1)-pyrrolidina-1(1,2),2(1,3)-dibenzenacyclononaphane-4^3-yl)methanesulfonamide]"
4,1 to 10,"CCS(=O)(=O)N[C@H]1[C@@H](F)CN2C(=O)N(C)CCOc3c(F)cccc3-c3cccc(c3)C[C@@H]12 [Example 16, N-((4^2S,4^3R,4^4S)-1^3,4^4-difluoro-6-methyl-5-oxo-9-oxa-6-aza-4(2,1)-pyrrolidina-1(1,2),2(1,3)-dibenzenacyclononaphane-4^3-yl)ethanesulfonamide]"
5,1 to 10,"CCS(=O)(=O)N[C@H]1[C@@H](F)CN2C(=O)N(C)CCOc3ccccc3-c3cccc(c3F)C[C@@H]12 [Example 17, N-((4^2S,4^3R,4^4S)-2^2,4^4-difluoro-6-methyl-5-oxo-9-oxa-6-aza-4(2,1)-pyrrolidina-1(1,2),2(1,3)-dibenzenacyclononaphane-4^3-yl)ethanesulfonamide]"
6,1 to 10,"CCS(=O)(=O)N[C@H]1[C@@H](F)CN2C(=O)N(C)CCOc3c(F)cccc3-c3cccc(c3F)C[C@@H]12 [Example 18, N-((4^2S,4^3R,4^4S)-1^3,2^2,4^4-trifluoro-6-methyl-5-oxo-9-oxa-6-aza-4(2,1)-pyrrolidina-1(1,2),2(1,3)-dibenzenacyclononaphane-4^3-yl)ethanesulfonamide]"
7,1 to 10,"CN1CCOc2c(F)cccc2-c2cccc(c2)C[C@H]2[C@@H](NS(=O)(=O)C(F)F)[C@@H](F)CN2C1=O [Example 20, N-((4^2S,4^3R,4^4S)-1^3,4^4-difluoro-6-methyl-5-oxo-9-oxa-6-aza-4(2,1)-pyrrolidina-1(1,2),2(1,3)-dibenzenacyclononaphane-4^3-yl)-1,1-difluoromethanesulfonamide]"
8,1 to 10,"CN1CCOc2c(F)cccc2-c2cccc(c2)C[C@H]2[C@@H](NS(=O)(=O)CF)[C@@H](F)CN2C1=O [Example 21, N-((4^2S,4^3R,4^4S)-1^3,4^4-difluoro-6-methyl-5-oxo-9-oxa-6-aza-4(2,1)-pyrrolidina-1(1,2),2(1,3)-dibenzenacyclononaphane-4^3-yl)-1-fluoromethanesulfonamide]"
